Results reported in US11292807B2 (OCEANS LTD., priority 2015, dated 2022).
Like-named read-outs stand apart in the source and are kept apart here.

Columns and labels:
MDA-MB [1] = details: MDA-MB
MDA-MB [2] = experiment: cells; details: Homo sapiens, read-out: Average cell viability, MDA-MB
PC3 = experiment: CIMA assay, cell viability, PC3; details: for Fold change in viability AVG / In vitro activity against cancer cell lines, PC3 AVG: PC3
[3] = system: U373 (glioblastoma-astrocytoma); experiment: CIMA assay, cell viability, U373; details: for Fold change in viability AVG / In vitro activity against cancer cell lines, U373 AVG: U373
Protocol: (§1) Stock solutions of the extracts were prepared in dimethylsulfoxide (DMSO) at 10 mg/mL and stored in 200 μl aliquots at −20° C. until analysis. This preparation ensured that the DMSO delivered to cells in culture never exceeded 1%.
(§2) Prepared extracts were assessed following chronic exposure conditions in which cells were seeded at 2×10^3 cells/well (96 well-plate) and incubated with test compounds for 72 h. Each compound was evaluated over a range of concentrations (0, 10, 25, 50 or 100 μg/ml). Cell proliferation was initially assessed using a standard colorimetric indicator of metabolic activity (CIMA) assay. In this assay, tetrazole reduction was evaluated as a measure of metabolic function that evaluates mitochondrial activity to determine the extent of cell proliferation within a culture. This assay is based on the reduction of yellow tetrazolium salt to purple formazan by mitochondrial reductases enzyme in viable cells, resulting in a color changed that confers a change in absorbance.

[4] = system: SKOV3 (ovarian adenocarcinoma); experiment: CIMA assay, cell viability, SKOV3; details: for Fold change in viability AVG / In vitro activity against cancer cell lines, SKOV AVG: SKOV
[5] = system: THP-1 (acute monocytic leukemia); experiment: CIMA assay, cell viability, THP-1; details: for Fold change in viability AVG / In vitro activity against cancer cell lines, THP-1 AVG: THP-1
[6] = CIMA assay, cell viability, CCD1079SK; details: human, Average cell viability, CCD
[7] = system: CCD1079SK (fibroblast, noncancerous but proliferating); experiment: CIMA assay, cell viability, CCD1079SK; details: CCD
A549 (lung carcinoma) = experiment: CIMA assay (colorimetric indicator of metabolic activity), cell viability, A549; details: for Fold change in viability AVG / In vitro activity against cancer cell lines, A549 AVG: A549
Protocol: as §1, §2

Structure (SMILES): CCCCCCCCCCCCCCCC(=O)OCC(COC1OC(CO)C(O)C(O)C1O)OC(=O)CCCCCCCCCCCCC (centres unmarked) [Compound 16, MGDG C16:0/C14:0]
- Fold change in viability AVG (MDA-MB [1]; 1 ug/mL): 1.08
- In vitro activity against cancer cell lines, MDA-MB AVG (MDA-MB [1]; 1 ug/mL): 1.08
- Fold change in viability AVG (MDA-MB [1]; 10 ug/mL): 1.09
- In vitro activity against cancer cell lines, MDA-MB AVG (MDA-MB [1]; 10 ug/mL): 1.09
- Fold change in viability AVG (MDA-MB [1]; 50 ug/mL): 0.76
- In vitro activity against cancer cell lines, MDA-MB AVG (MDA-MB [1]; 50 ug/mL): 0.76
- Fold change in viability AVG (MDA-MB [1]; 100 ug/mL): 0.21
- In vitro activity against cancer cell lines, MDA-MB AVG (MDA-MB [1]; 100 ug/mL): 0.21
- viability at 1 µg/mL (MDA-MB [2]; 1 ug/mL): 99%
- viability at 10 µg/mL (MDA-MB [2]; 10 ug/mL): 101%
- viability at 50 µg/mL (MDA-MB [2]; 50 ug/mL): 70%
- viability at 100 µg/mL (MDA-MB [2]; 100 ug/mL): 20%
- viability at 1 µg/mL (PC3; Homo sapiens, PC-3, read-out: Average cell viability, PC3, 1 ug/mL): 100%
- viability at 10 µg/mL (PC3; Homo sapiens, PC-3, read-out: Average cell viability, PC3, 10 ug/mL): 96%
- viability at 50 µg/mL (PC3; Homo sapiens, PC-3, read-out: Average cell viability, PC3, 50 ug/mL): 72%
- viability at 100 µg/mL (PC3; Homo sapiens, PC-3, read-out: Average cell viability, PC3, 100 ug/mL): 9%
- Fold change in viability AVG (PC3; 1 ug/mL): 1.04
- In vitro activity against cancer cell lines, PC3 AVG (PC3; 1 ug/mL): 1.04
- Fold change in viability AVG (PC3; 10 ug/mL): 0.99
- In vitro activity against cancer cell lines, PC3 AVG (PC3; 10 ug/mL): 0.99
- Fold change in viability AVG (PC3; 50 ug/mL): 0.75
- In vitro activity against cancer cell lines, PC3 AVG (PC3; 50 ug/mL): 0.75
- Fold change in viability AVG (PC3; 100 ug/mL): 0.10
- In vitro activity against cancer cell lines, PC3 AVG (PC3; 100 ug/mL): 0.10
- viability at 1 µg/mL ([3]; Homo sapiens, U373 MG, read-out: Average cell viability, U373, 1 ug/mL): 108%
- viability at 10 µg/mL ([3]; Homo sapiens, U373 MG, read-out: Average cell viability, U373, 10 ug/mL): 95%
- viability at 50 µg/mL ([3]; Homo sapiens, U373 MG, read-out: Average cell viability, U373, 50 ug/mL): 48%
- viability at 100 µg/mL ([3]; Homo sapiens, U373 MG, read-out: Average cell viability, U373, 100 ug/mL): 9%
- Fold change in viability AVG ([3]; 1 ug/mL): 1.09
- In vitro activity against cancer cell lines, U373 AVG ([3]; 1 ug/mL): 1.09
- Fold change in viability AVG ([3]; 10 ug/mL): 0.97
- In vitro activity against cancer cell lines, U373 AVG ([3]; 10 ug/mL): 0.97
- Fold change in viability AVG ([3]; 50 ug/mL): 0.49
- In vitro activity against cancer cell lines, U373 AVG ([3]; 50 ug/mL): 0.49
- Fold change in viability AVG ([3]; 100 ug/mL): 0.09
- In vitro activity against cancer cell lines, U373 AVG ([3]; 100 ug/mL): 0.09
- viability at 1 µg/mL ([4]; Homo sapiens, SK-OV-3, read-out: Average cell viability, SKOV, 1 ug/mL): 102%
- viability at 10 µg/mL ([4]; Homo sapiens, SK-OV-3, read-out: Average cell viability, SKOV, 10 ug/mL): 95%
- viability at 50 µg/mL ([4]; Homo sapiens, SK-OV-3, read-out: Average cell viability, SKOV, 50 ug/mL): 83%
- viability at 100 µg/mL ([4]; Homo sapiens, SK-OV-3, read-out: Average cell viability, SKOV, 100 ug/mL): 68%
- Fold change in viability AVG ([4]; 1 ug/mL): 1.09
- In vitro activity against cancer cell lines, SKOV AVG ([4]; 1 ug/mL): 1.09
- Fold change in viability AVG ([4]; 10 ug/mL): 1.02
- In vitro activity against cancer cell lines, SKOV AVG ([4]; 10 ug/mL): 1.02
- Fold change in viability AVG ([4]; 50 ug/mL): 0.90
- In vitro activity against cancer cell lines, SKOV AVG ([4]; 50 ug/mL): 0.90
- Fold change in viability AVG ([4]; 100 ug/mL): 0.74
- In vitro activity against cancer cell lines, SKOV AVG ([4]; 100 ug/mL): 0.74
- viability at 1 µg/mL ([5]; Homo sapiens, THP-1, read-out: Average cell viability, THP-1, 1 ug/mL): 101%
- viability at 10 µg/mL ([5]; Homo sapiens, THP-1, read-out: Average cell viability, THP-1, 10 ug/mL): 101%
- viability at 50 µg/mL ([5]; Homo sapiens, THP-1, read-out: Average cell viability, THP-1, 50 ug/mL): 86%
- viability at 100 µg/mL ([5]; Homo sapiens, THP-1, read-out: Average cell viability, THP-1, 100 ug/mL): 46%
- Fold change in viability AVG ([5]; 1 ug/mL): 1.14
- In vitro activity against cancer cell lines, THP-1 AVG ([5]; 1 ug/mL): 1.14
- Fold change in viability AVG ([5]; 10 ug/mL): 1.15
- In vitro activity against cancer cell lines, THP-1 AVG ([5]; 10 ug/mL): 1.15
- Fold change in viability AVG ([5]; 50 ug/mL): 0.75
- In vitro activity against cancer cell lines, THP-1 AVG ([5]; 50 ug/mL): 0.75
- Fold change in viability AVG ([5]; 100 ug/mL): 0.52
- In vitro activity against cancer cell lines, THP-1 AVG ([5]; 100 ug/mL): 0.52
- viability at 72 h, 1 ug/mL ([6]; CCD1079SK fibroblast cells (noncancerous, proliferating), 1 ug/mL): 106%
- viability at 72 h, 10 ug/mL ([6]; CCD1079SK fibroblast cells (noncancerous, proliferating), 10 ug/mL): 98%
- viability at 72 h, 50 ug/mL ([6]; CCD1079SK fibroblasts (noncancerous, proliferating), 50 ug/mL): 44%
- viability at 72 h, 100 ug/mL ([6]; CCD1079SK fibroblasts (noncancerous, proliferating), 100 ug/mL): 19%
- Fold change in viability AVG ([7]; 1 ug/mL): 1.16
- Fold change in viability AVG ([7]; 10 ug/mL): 1.08
- Fold change in viability AVG ([7]; 50 ug/mL): 0.48
- Fold change in viability AVG ([7]; 100 ug/mL): 0.21
- Fold change in viability AVG (A549 (lung carcinoma); 1 ug/mL): 1.13
- In vitro activity against cancer cell lines, A549 AVG (A549 (lung carcinoma); 1 ug/mL): 1.13
- Fold change in viability AVG (A549 (lung carcinoma); 10 ug/mL): 1.16
- In vitro activity against cancer cell lines, A549 AVG (A549 (lung carcinoma); 10 ug/mL): 1.16
- Fold change in viability AVG (A549 (lung carcinoma); 50 ug/mL): 0.99
- In vitro activity against cancer cell lines, A549 AVG (A549 (lung carcinoma); 50 ug/mL): 0.99
- Fold change in viability AVG (A549 (lung carcinoma); 100 ug/mL): 0.60
- In vitro activity against cancer cell lines, A549 AVG (A549 (lung carcinoma); 100 ug/mL): 0.60
- viability at 1 µg/mL (A549 (lung carcinoma); Homo sapiens, A549, read-out: Average cell viability, A549, 1 ug/mL): 97%
- viability at 10 µg/mL (A549 (lung carcinoma); Homo sapiens, A549, read-out: Average cell viability, A549, 10 ug/mL): 99%
- viability at 50 µg/mL (A549 (lung carcinoma); Homo sapiens, A549, read-out: Average cell viability, A549, 50 ug/mL): 85%
- viability at 100 µg/mL (A549 (lung carcinoma); Homo sapiens, A549, read-out: Average cell viability, A549, 100 ug/mL): 52%
